Measured values as given in patent publication US20190224186A1, “TREATMENT OF MULTIPLE SCLEROSIS WITH CHS-131” (InteKrin Therapeutics, Inc., priority 2016, published 2019).

How the values were obtained:
Format in all cases: in vivo, human
[1] = tested on: MS patients in the relapsing and remitting course of the disease (RRMS); assay: Phase 2 trial: Expanded Disability Status Scale (EDSS) score
Description: Several methods are used to diagnose and determine the impact of multiple sclerosis on patients. The McDonald criteria are used to diagnose multiple sclerosis on clinical grounds and MRI lesions consistent with MS. The Expanded Disability Status Scale (EDSS) quantifies disability in eight Functional Systems (FS) and allows neurologists to assign a Functional System Score (FSS) in each of these. The Multiple Sclerosis Functional Composite (MSFC) is a three-part, standardized, quantitative, assessment of function. The three components of the MSFC measure leg function/ambulation, arm/hand function, and cognitive function. The EDSS and MSFC scores are useful to determine if a drug improves or prevents loss of cognitive or physical function of a patient with MS. A drug is said to reduce MS-related dysfunction if it reduces a patient's EDSS or MSFC score. The study enrolled MS patients in the relapsing and remitting course of the disease (RRMS) who had been diagnosed within ≤3 years of enrollment. Patients had to be treatment-naïve, have ≥1 gadolinium-positive lesion within 12 months of enrollment, and have an Expanded Disability Status Score (EDSS) of 0-6 at screening. Part 1 was a double-blind, parallel-group, 6-month study. Patients were randomized to oral CHS-131 at 3 mg or 1 mg or placebo in a 1:1:1 ratio at 21 sites in Russia. Monthly MRIs were read in a blinded fashion at the Buffalo Neuroimaging and Analysis Center, Buffalo, N.Y., USA. Part 2 is an open label, 6-month, safety extension study, in which all subjects transition to 1 mg CHS-131 daily, to evaluate clinical response, CE lesions on MM, and safety. The EDSS scores are reported for the full analysis population in the table below.

[2] = tested on: MS patients in the relapsing and remitting course of the disease (RRMS); assay: Phase 2 trial: annualized confirmed relapse rate (ARR)
Experimental: The study enrolled MS patients in the relapsing and remitting course of the disease (RRMS) who had been diagnosed within ≤3 years of enrollment. Patients had to be treatment-naïve, have ≥1 gadolinium-positive lesion within 12 months of enrollment, and have an Expanded Disability Status Score (EDSS) of 0-6 at screening. Part 1 was a double-blind, parallel-group, 6-month study. Patients were randomized to oral CHS-131 at 3 mg or 1 mg or placebo in a 1:1:1 ratio at 21 sites in Russia. Monthly MRIs were read in a blinded fashion at the Buffalo Neuroimaging and Analysis Center, Buffalo, N.Y., USA. Part 2 is an open label, 6-month, safety extension study, in which all subjects transition to 1 mg CHS-131 daily, to evaluate clinical response, CE lesions on MM, and safety. The ARR was lower for both 3 mg CHS-131 (0.26) and 1 mg (0.28) as compared with placebo (0.35). Thus, administering CHS-131 reduces the rate at which relapses of worsening neurological function (e.g. flare-ups or exacerbations) occur. Put otherwise, administration of CHS-131 increases the time between relapses.

[3] = tested on: MS patients in the relapsing and remitting course of the disease (RRMS); assay: Phase 2 trial: change in cortical (neocortical) volume by MRI, SIENAX-MTP3; details: 3 mg
Experimental: Upon completion of the six-month trial period described in Example 1 the change in neocortical volume and whole brain volume was evaluated. Table 9 below reports the change in neocortical volumes at 3 months and at 6 months, compared to baseline, for the 3 mg and placebo groups. Baseline volume was normalized for head size. Percent change is calculated by […]-multi-time point (MTP3) algorithm. The difference in the mean change in volume calculated to determine the impact treatment with CHS-131.

[4] = tested on: MS patients in the relapsing and remitting course of the disease (RRMS); assay: Phase 2 trial: whole brain volume by serial MRIs
Experimental: Whole brain volume was evaluated at baseline and six months in this study. Neural atrophy was measured by serial determination of brain volume using serial MRIs.

[5] = tested on: MS patients in the relapsing and remitting course of the disease (RRMS); assay: Trend line of change in cortical volume versus EDSS scores; details: 6-month time point
Description: To evaluate the connection between cortical volume loss and dysfunction, the reduction in volume loss was compared to EDSS scores of the MS patients. FIGS. 5 and 6 show the relationship between the change in cortical volume and EDSS scores at 3 months and 6 months, respectively.

[6] = tested on: MS patients in the relapsing and remitting course of the disease (RRMS); assay: Phase 2 trial: change in cortical (neocortical) volume by MRI, SIENAX-MTP3; details: 1 mg

SMILES: O=S(=O)(Nc1cc(Cl)c(Oc2cnc3ccccc3c2)c(Cl)c1)c1ccc(Cl)cc1Cl [CHS-131]
- Month 3 EDSS % change from baseline ([1]; 1 mg): −0.49%
- Month 6 EDSS % change from baseline ([1]; 1 mg): −2.94%
- Month 3 EDSS Mean (SD) ([1]; 1 mg, n=74): 2.03 (0.961)
- Month 6 EDSS Mean (SD) ([1]; 1 mg, n=74): 1.98 (0.974)
- Month 3 EDSS % change from baseline ([1]; 3 mg): −0.46%
- Month 6 EDSS % change from baseline ([1]; 3 mg): −4.59%
- Month 6 EDSS Mean (SD) ([1]; 3 mg, n=73): 2.08 (0.846)
- Month 3 EDSS Mean (SD) ([1]; 3 mg, n=74): 2.17 (0.945)
- Annualized Confirmed Relapse Rate (ARR) ([2]; 1 mg): 0.28
- Annualized Confirmed Relapse Rate (ARR) ([2]; 3 mg): 0.26
- Cortical volume rate of loss ([3]; 3 Months): −0.297
- Reduction in cortical volume loss from CHS-131, as compared to placebo ([3]; 3 Months): 42.6%
- Cortical volume rate of loss ([3]; 6 Months): −0.709
- Reduction in cortical volume loss from CHS-131, as compared to placebo ([3]; 6 Months): 34.2%
- Cortical volume, percent change from baseline to 6 month, Mean ([3]; n=56): −0.709%
- Cortical volume, percent change from baseline to 6 month, Median ([3]; n=56): −0.832%
- Cortical volume, percent change from baseline to 3 month, Mean ([3]; n=61): −0.297%
- Cortical volume, percent change from baseline to 3 month, Median ([3]; n=61): −0.325%
- less neural volume loss compared to placebo ([4]; 1 mg daily, 6 months): 13%
- brain volume lost over 6 months ([4]; 1 mg/day): 0.14%
- less parenchymal atrophy than the placebo treated cohort ([4]; 3 mg daily, 6 months): 50%
- neural parenchyma volume lost over 6 months ([4]; 3 mg/day): 0.08%
- trend line slope, change in cortical volume vs EDSS score ([5]; 1 mg): −0.138
- trend line slope, change in cortical volume vs EDSS score ([5]; 3 mg): 0.080
- reduction in the loss of cortical volume [6]: No reduction in the loss of cortical volume was observed
- Cortical volume, percent change from baseline to 6 month, Mean ([6]; n=50): −1.350%
- Cortical volume, percent change from baseline to 6 month, Median ([6]; n=50): −1.428%
- Cortical volume, percent change from baseline to 3 month, Mean ([6]; n=57): −0.706%
- Cortical volume, percent change from baseline to 3 month, Median ([6]; n=57): −0.746%
